Measured values: patent US20250163104A1, “MACROCYCLIC IMMUNOMODULATORS” (priority 2021, published 2025)
Where a SMILES comes first, the peptide text is derived from it. Bridges are numbered along the chain shown (N, C = ends). [ ]: non-standard residue; d: D form. The star is where a group is joined. ξ: configuration not given here. Bip(3'-COOH) = N[C@@H](Cc1ccc(-c2cccc(C(=O)O)c2)cc1)C(=O)O; Phe(3-CF3) = N[C@@H](Cc1cccc(C(F)(F)F)c1)C(=O)O; Ala(morpholin-4-yl) = N[C@@H](CN1CCOCC1)C(=O)O; Phe(4-COOH) = N[C@@H](Cc1ccc(C(=O)O)cc1)C(=O)O; Bip = N[C@@H](Cc1ccc(-c2ccccc2)cc1)C(=O)O; Phe(3-Me) = Cc1cccc(C[C@H](N)C(=O)O)c1; Val(3-OH) = CC(C)(O)[C@H](N)C(=O)O; 4Pal = N[C@@H](Cc1ccncc1)C(=O)O; Cha = N[C@@H](CC1CCCCC1)C(=O)O; Cit = NC(=O)NCCC[C@H](N)C(=O)O; Ile(3ξ) = CCC(C)[C@H](N)C(=O)O; Thr(3ξ) = CC(O)[C@H](N)C(=O)O; Carboxymethyl = O=C(O)C*; Nle = CCCC[C@H](N)C(=O)O; Orn = NCCC[C@H](N)C(=O)O; Dab = NCC[C@H](N)C(=O)O; Abu = CC[C@H](N)C(=O)O; Dap = NC[C@H](N)C(=O)O; Propargyl = C#CC*

The compounds below were run against T1, human PD-1 / PD-L1-Ig binding on Jurkat cell line over-expressing human PD-1 (Jurkat-PD-1) (Homo sapiens, UniProt Q15116) (assay: Jurkat-PD-1 Cell Binding High-Content Screening Assay (CBA)). Conditions: Jurkat-PD-1 cells, PE-labeled PD-L1-Ig 20 nM final; read-out: Jurkat HPD1_PDL1 IC50.
T1 construct: expressed in transfected cells; host or cells: Jurkat
T1 sequence (Q15116 25-288): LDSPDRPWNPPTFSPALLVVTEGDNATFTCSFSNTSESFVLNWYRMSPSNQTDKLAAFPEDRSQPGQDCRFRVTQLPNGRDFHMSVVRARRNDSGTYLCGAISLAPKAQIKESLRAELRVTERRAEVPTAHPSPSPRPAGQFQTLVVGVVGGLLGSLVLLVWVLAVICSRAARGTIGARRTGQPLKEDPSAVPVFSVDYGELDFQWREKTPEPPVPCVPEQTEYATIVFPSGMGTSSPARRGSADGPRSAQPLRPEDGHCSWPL
Assay type: cell-based
In short: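 Compounds were preincubated with Jurkat-hPD-1 cells in DMEM plus 10% fetal calf serum for 2 h at 37° C. Phycoerythrin-labeled PD-L1-Ig (20 nM final) was then added for 1 hour. Cells were fixed in 4% paraformaldehyde with Hoechst 33342, and bound fluorescence was quantified by high-content imaging.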
With CCCC[C@@H]1NC(=O)[C@H](CCN)NC(=O)[C@@H](CC(C)C)NC(=O)[C@H](CCCN)NC(=O)[C@H](CCCNC(N)=O)NC(=O)[C@H](Cc2ccc(-c3ccccc3)cc2)NC(=O)[C@H](C(C)C)NC(=O)[C@H](Cc2cccc(C)c2)NC(=O)[C@H](CC(=O)O)NC(=O)[C@H](Cc2ccc(C(=O)O)cc2)NC(=O)[C@H](Cc2ccncc2)NC(=O)CSC[C@@H](C(=O)N[C@@H](C)C(N)=O)NC(=O)[C@H]([C@@H](C)O)NC(=O)[C@H](C(C)C)NC1=O [Compound 1189] ({CH2CO}-[4Pal][Phe(4-COOH)]D[Phe(3-Me)]V[Bip][Cit][Orn][dL][Dab][Nle]VTCA-NH2; thioether N-14) the IC50 was 17.7 nM.
For Cc1cccc(C[C@@H]2NC(=O)[C@H](CC(=O)O)NC(=O)[C@H](Cc3ccncc3)NC(=O)[C@H](Cc3ccc(OCC(=O)O)cc3)NC(=O)CSC[C@@H](C(=O)NCC(N)=O)NC(=O)[C@H](CO)NC(=O)[C@H](C(C)C)NC(=O)[C@H](CC(C)C)NC(=O)[C@H](CCN)NC(=O)[C@@H](CC(C)C)NC(=O)[C@H](CCCN)NC(=O)[C@H](C(C)C)NC(=O)[C@H](Cc3ccc(-c4ccccc4)cc3)NC(=O)[C@H](CC(C)C)NC2=O)c1 [Compound 1265] ({CH2CO}-Y(Carboxymethyl)[4Pal]D[Phe(3-Me)]L[Bip]V[Orn][dL][Dab]LVSCG-NH2; thioether N-14), the IC50 was 7.7 nM.
For CC(C)C[C@H]1NC(=O)[C@H](CCCN)NC(=O)[C@H](Cc2ccc(C(=O)O)cc2)NC(=O)[C@H](Cc2ccc(-c3ccccc3)cc2)NC(=O)[C@H](Cc2ccc(C(=O)O)cc2)NC(=O)[C@H](Cc2cccc(C(F)(F)F)c2)NC(=O)[C@H](CC(N)=O)NC(=O)[C@H](Cc2ccc(C(=O)O)cc2)NC(=O)[C@H](CN2CCOCC2)NC(=O)CSC[C@@H](C(=O)N[C@@H](CCN)C(N)=O)NC(=O)[C@H](CCC(=O)O)NC(=O)[C@H](C(C)C)NC(=O)[C@H](CC2CCCCC2)NC(=O)[C@H](CCN)NC1=O [Example 2722] ({CH2CO}-[Ala(morpholin-4-yl)][Phe(4-COOH)]N[Phe(3-CF3)][Phe(4-COOH)][Bip][Phe(4-COOH)][Orn][dL][Dab][Cha]VEC[Dab]-NH2; thioether N-14), the IC50 was 105 nM.
With CC(C)C[C@@H]1NC(=O)[C@H](Cc2c[nH]c3ccccc23)NC(=O)[C@H](CC(=O)O)NC(=O)[C@H](Cc2ccc(O)cc2)NC(=O)[C@H](Cc2ccccc2)NC(=O)CSC[C@@H](C(=O)NCC(N)=O)NC(=O)[C@H](CO)NC(=O)[C@H](C(C)C)NC(=O)[C@H](CC(C)C)NC(=O)[C@H](CC(N)=O)NC(=O)[C@@H](CC(C)C)NC(=O)[C@H](CN)NC(=O)[C@H](C(C)C)NC(=O)[C@H](Cc2ccc(-c3ccccc3)cc2)NC1=O [Compound 1274] ({CH2CO}-FYDWL[Bip]V[Dap][dL]NLVSCG-NH2; thioether N-14) the IC50 was 38.4 nM.
With Cc1cccc(C[C@@H]2NC(=O)[C@H](CC(=O)O)NC(=O)[C@H](Cc3ccncc3)NC(=O)[C@H](Cc3ccc(OCC(=O)O)cc3)NC(=O)CSC[C@@H](C(=O)N[C@@H](C)C(N)=O)NC(=O)[C@H]([C@@H](C)O)NC(=O)[C@H](C(C)C)NC(=O)[C@H](CC(C)C)NC(=O)[C@H](CCN)NC(=O)[C@@H](CC(C)C)NC(=O)[C@H](CCCN)NC(=O)[C@H](C(C)C)NC(=O)[C@H](Cc3ccc(-c4ccccc4)cc3)NC(=O)[C@H](C(C)C)NC2=O)c1 [Compound 1222] ({CH2CO}-Y(Carboxymethyl)[4Pal]D[Phe(3-Me)]V[Bip]V[Orn][dL][Dab]LVTCA-NH2; thioether N-14) the IC50 was 14.7 nM.
In the case of Cc1cccc(C[C@@H]2NC(=O)[C@H](CC(=O)O)NC(=O)[C@H](Cc3ccncc3)NC(=O)[C@H](CN)NC(=O)CSC[C@@H](C(=O)N[C@@H](C)C(N)=O)NC(=O)[C@H]([C@@H](C)O)NC(=O)[C@H](C(C)C)NC(=O)[C@H](CC3CCCCC3)NC(=O)[C@H](Cc3cnc[nH]3)NC(=O)[C@@H](CC(C)C)NC(=O)[C@H](CCCN)NC(=O)[C@H](C(C)C)NC(=O)[C@H](Cc3ccc(-c4ccccc4)cc3)NC(=O)[C@H](C(C)C)NC2=O)c1 [Compound 1583], the IC50 is reported as 20 nM.
Cc1cccc(C[C@@H]2NC(=O)[C@H](CC(=O)O)NC(=O)[C@H](Cc3ccc(OCC(=O)O)cc3)NC(=O)[C@H](CN)NC(=O)CSC[C@@H](C(N)=O)NC(=O)[C@H](CCC(=O)O)NC(=O)[C@H](C(C)C)NC(=O)[C@H](CC3CCCCC3)NC(=O)[C@H](CCN)NC(=O)[C@@H](CC(C)C)NC(=O)[C@H](CCCN)NC(=O)[C@H](Cc3ccc(OCC(=O)O)cc3)NC(=O)[C@H](Cc3ccc(-c4ccccc4)cc3)NC(=O)[C@H](Cc3ccc(OCC(=O)O)cc3)NC2=O)c1 [Compound 1784] ({CH2CO}-[Dap]Y(Carboxymethyl)D[Phe(3-Me)]Y(Carboxymethyl)[Bip]Y(Carboxymethyl)[Orn][dL][Dab][Cha]VEC-NH2; thioether N-14) gave an IC50 of 25.8 nM.
In the case of CCCC[C@@H]1NC(=O)CSC[C@@H](C(=O)N[C@@H](CCN)C(N)=O)NC(=O)[C@H](CO)NC(=O)[C@H](C(C)(C)O)NC(=O)[C@H](CC2CCCCC2)NC(=O)[C@H](CCN)NC(=O)[C@@H](CC(C)C)NC(=O)[C@H](CCCN)NC(=O)[C@H](Cc2ccc(OCC(=O)O)cc2)NC(=O)[C@H](Cc2ccc(-c3ccccc3)cc2)NC(=O)[C@H](Cc2ccc(OCC(=O)O)cc2)NC(=O)[C@H](Cc2cccc(C)c2)NC(=O)[C@H](CC(=O)O)NC(=O)[C@H](Cc2ccc(OCC(=O)O)cc2)NC1=O [Compound 2687] ({CH2CO}-[Nle]Y(Carboxymethyl)D[Phe(3-Me)]Y(Carboxymethyl)[Bip]Y(Carboxymethyl)[Orn][dL][Dab][Cha][Val(3-OH)]SC[Dab]-NH2; thioether N-14), the IC50 is reported as 0.4 nM.
Compound Cc1cccc(C[C@@H]2NC(=O)[C@H](CC(=O)O)NC(=O)[C@H](Cc3ccc(C(=O)O)cc3)NC(=O)[C@H](Cc3ccncc3)NC(=O)CSC[C@@H](C(=O)N[C@@H](CC(N)=O)C(N)=O)NC(=O)[C@H](CO)NC(=O)[C@H](C(C)C)NC(=O)[C@H](CC3CCCCC3)NC(=O)[C@H](CCN)NC(=O)[C@@H](CC(C)C)NC(=O)[C@H](CCCN)NC(=O)[C@H](Cc3ccc(O)cc3)NC(=O)[C@H](Cc3ccc(-c4ccccc4)cc3)NC(=O)[C@H](Cc3ccc(O)cc3)NC2=O)c1 [Compound 2284] ({CH2CO}-[4Pal][Phe(4-COOH)]D[Phe(3-Me)]Y[Bip]Y[Orn][dL][Dab][Cha]VSCN-NH2; thioether N-14) has an IC50 of 4.1 nM.
C#CCOc1ccc(C[C@@H]2NC(=O)[C@H](Cc3cccc(C)c3)NC(=O)[C@H](CC(=O)O)NC(=O)[C@H](Cc3ccc(OCC(=O)O)cc3)NC(=O)[C@H](CC)NC(=O)CSC[C@@H](C(=O)N[C@@H](CCN)C(N)=O)NC(=O)[C@H](CCC(=O)O)NC(=O)[C@H](C(C)C)NC(=O)[C@H](CC3CCCCC3)NC(=O)[C@H](CCN)NC(=O)[C@@H](CC(C)C)NC(=O)[C@H](CCCN)NC(=O)[C@H](Cc3ccc(OCC(=O)O)cc3)NC(=O)[C@H](Cc3ccc(-c4ccccc4)cc3)NC2=O)cc1 [Compound 1840] ({CH2CO}-[Abu]Y(Carboxymethyl)D[Phe(3-Me)]Y(Propargyl)[Bip]Y(Carboxymethyl)[Orn][dL][Dab][Cha]VEC[Dab]-NH2; thioether N-14) gave an IC50 of 3.4 nM.
With CC(C)C[C@H]1NC(=O)[C@H](CCCN)NC(=O)[C@H](CCC(=O)O)NC(=O)[C@H](Cc2ccc(-c3ccccc3)cc2)NC(=O)[C@H](C(C)C)NC(=O)[C@H](Cc2c[nH]c3ccccc23)NC(=O)[C@H](CC(=O)O)NC(=O)[C@H](Cc2ccc(N)cc2)NC(=O)[C@H](CN)NC(=O)CSC[C@@H](C(=O)N[C@@H](C)C(N)=O)NC(=O)[C@H]([C@@H](C)O)NC(=O)[C@H](C(C)C)NC(=O)[C@H](CC2CCCCC2)NC(=O)[C@H](CCN)NC1=O [Compound 2182] the IC50 was 16 nM.
CCC(C)[C@@H]1NC(=O)[C@H](Cc2ccc(-c3ccccc3)cc2)NC(=O)[C@H](Cc2ccccc2)NC(=O)[C@H](Cc2c[nH]c3ccccc23)NC(=O)[C@H](CC(=O)O)NC(=O)[C@H](Cc2ccc(OCC(=O)O)cc2)NC(=O)[C@H](C(C)O)NC(=O)CSC[C@@H](C(=O)N[C@@H](CC(N)=O)C(=O)O)NC(=O)[C@H](CO)NC(=O)[C@H](C(C)C)NC(=O)[C@H](CC(C)C)NC(=O)[C@H](CCN)NC(=O)[C@@H](CC(C)C)NC(=O)[C@H](CCCN)NC1=O (stereo partly drawn) [Compound 2574] ({CH2CO}-[Thr(3ξ)]Y(Carboxymethyl)DWF[Bip][Ile(3ξ)][Orn][dL][Dab]LVSCN-OH; thioether N-14) was tested, and the IC50 was 132 nM.
With CC[C@H](C)[C@@H]1NC(=O)[C@H](Cc2ccc(-c3ccccc3)cc2)NC(=O)[C@H](C(C)C)NC(=O)[C@H](Cc2cccc(C)c2)NC(=O)[C@H](CC(=O)O)NC(=O)[C@H](Cc2ccncc2)NC(=O)[C@H](CN)NC(=O)CSC[C@@H](C(=O)N[C@@H](C)C(N)=O)NC(=O)[C@H]([C@@H](C)O)NC(=O)[C@H](C(C)C)NC(=O)[C@H](CC2CCCCC2)NC(=O)[C@H](CCN)NC(=O)[C@@H](CC(C)C)NC(=O)[C@H](CCCN)NC1=O [Compound 1561] the IC50 was 16.2 nM.
CC(C)C[C@H]1NC(=O)[C@H](CCCN)NC(=O)[C@H](CCCCN)NC(=O)[C@H](Cc2ccc(-c3ccccc3)cc2)NC(=O)[C@H](C(C)C)NC(=O)[C@H](Cc2c[nH]c3ccccc23)NC(=O)[C@H](CC(=O)O)NC(=O)[C@H](Cc2ccncc2)NC(=O)[C@H](CN)NC(=O)CSC[C@@H](C(=O)N[C@@H](CC(N)=O)C(N)=O)NC(=O)[C@H](C(C)O)NC(=O)[C@H](C(C)C)NC(=O)[C@H](CC2CCCCC2)NC(=O)[C@H](CCN)NC1=O (stereo partly drawn) [Compound 2542] ({CH2CO}-[Dap][4Pal]DWV[Bip]K[Orn][dL][Dab][Cha]V[Thr(3ξ)]CN-NH2; thioether N-14) was tested, and the IC50 was 20.5 nM.
CC(C)C[C@H]1NC(=O)[C@H](CCCN)NC(=O)[C@H](CCC(=O)O)NC(=O)[C@H](Cc2ccc(-c3ccccc3)cc2)NC(=O)[C@H](C(C)C)NC(=O)[C@H](Cc2c[nH]c3ccccc23)NC(=O)[C@H](CC(=O)O)NC(=O)[C@H](Cc2ccc(-c3cccc(C(=O)O)c3)cc2)NC(=O)[C@H](CC(N)=O)NC(=O)CSC[C@@H](C(=O)N[C@@H](C)C(N)=O)NC(=O)[C@H]([C@@H](C)O)NC(=O)[C@H](C(C)C)NC(=O)[C@H](CC2CCCCC2)NC(=O)[C@H](CCN)NC1=O [Compound 2165] ({CH2CO}-N[Bip(3'-COOH)]DWV[Bip]E[Orn][dL][Dab][Cha]VTCA-NH2; thioether N-14) was tested, and the IC50 was 24.1 nM.
